The target of assay [1] is T1, hTERT (Homo sapiens, UniProt O14746). The assay can be described thus: RT-TRAP with recombinant telomerase ([…]). The assay is classed as biochemical. More on the design: gene TERT.
Assay [2] addresses T1, hTERT. In words: RT-TRAP and direct telomerase assay with reconstituted purified hTERT + hTR; preincubation with hTERT vs hTR; dilution (reversibility) test. The assay is classed as biochemical. Further details: gene TERT; MBP-hTERT, purified from P. pastoris.

This passage reports IC50 results from PMC4551907, “Identification of human telomerase assembly inhibitors enabled by a novel method to produce hTERT” (Nucleic Acids Research, 2015).

The IC50 is the midpoint of a concentration-inhibition curve.

T1 sequence (O14746 whole entry): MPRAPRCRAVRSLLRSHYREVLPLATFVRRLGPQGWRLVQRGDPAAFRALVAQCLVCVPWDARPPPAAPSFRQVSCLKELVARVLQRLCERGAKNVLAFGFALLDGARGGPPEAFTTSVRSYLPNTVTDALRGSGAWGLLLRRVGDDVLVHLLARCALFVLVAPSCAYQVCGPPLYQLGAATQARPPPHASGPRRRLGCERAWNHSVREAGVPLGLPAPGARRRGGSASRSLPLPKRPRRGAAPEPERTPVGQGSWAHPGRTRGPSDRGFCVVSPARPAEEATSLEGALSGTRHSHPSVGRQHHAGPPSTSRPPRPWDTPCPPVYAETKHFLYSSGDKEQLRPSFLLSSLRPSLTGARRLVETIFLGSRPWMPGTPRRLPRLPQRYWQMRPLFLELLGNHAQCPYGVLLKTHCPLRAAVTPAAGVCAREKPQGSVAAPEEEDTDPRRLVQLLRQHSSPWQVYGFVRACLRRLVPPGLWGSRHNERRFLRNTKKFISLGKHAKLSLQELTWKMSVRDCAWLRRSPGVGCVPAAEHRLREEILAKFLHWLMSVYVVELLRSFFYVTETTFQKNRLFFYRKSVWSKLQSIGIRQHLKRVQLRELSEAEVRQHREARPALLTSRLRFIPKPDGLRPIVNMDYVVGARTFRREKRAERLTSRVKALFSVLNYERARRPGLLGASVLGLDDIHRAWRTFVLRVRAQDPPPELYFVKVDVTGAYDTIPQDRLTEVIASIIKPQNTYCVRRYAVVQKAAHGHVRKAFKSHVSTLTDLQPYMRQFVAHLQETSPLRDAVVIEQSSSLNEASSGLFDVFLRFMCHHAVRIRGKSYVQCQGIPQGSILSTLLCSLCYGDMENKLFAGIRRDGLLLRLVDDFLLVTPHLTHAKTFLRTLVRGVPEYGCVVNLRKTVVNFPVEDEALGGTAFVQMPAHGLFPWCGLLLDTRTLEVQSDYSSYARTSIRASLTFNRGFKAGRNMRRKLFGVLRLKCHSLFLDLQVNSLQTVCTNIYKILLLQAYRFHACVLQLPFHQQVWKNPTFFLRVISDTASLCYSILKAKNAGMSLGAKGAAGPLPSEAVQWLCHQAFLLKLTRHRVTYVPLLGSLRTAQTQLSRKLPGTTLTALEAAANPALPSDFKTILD

`C/C(=C\C(=O)Nc1ccccc1C(=O)O)c1ccc2ccccc2c1` [BIBR1532]: the IC50 at hTERT [1] is ~80 nM.

For `NC1CC(N)C(O[C@H]2O[C@H](CNC(=O)[C@@H](N)CCCCNCc3ccc4nc5ccc6nc7ccccc7cc6c5cc4c3)[C@@H](O)C[C@H]2N)C(O)C1O[C@H]1O[C@H](CO)[C@@H](O)[C@H](N)[C@H]1O` (some centres unmarked) [TAI1], on hTERT [2], the IC50 amounted to 500 ± 200 nM.
